Experimental data as given in patent publication US20150032088A1, “SUSTAINED DRUG DELIVERY FROM SOLID STATE COMPOSITIONS WITH NANOCHANNEL MEMBRANES” (priority 2012, published 2015).

Tests used:
Format in all cases: physicochemical
[1] = Levothyroxine release from capsule with 3 nm nanochannel membrane into sink solution; settings: powder, 2 separate experiments (019, 040)
Source text: The implantable capsule comprising one or more nanochannel membranes were fabricated according to US 2010/0152699 and PCT/US2009/064376. The nanochannel membranes present nanochannels ranging in sizes between 3 and 50 nm. The nanochannel membranes (FIG. 2A) were produced in 29 configurations presenting different constant rates of delivery. Custom diffusion devices (FIG. 2B) were utilized for measuring the amount of drug released from nanochannel membrane devices using UV-spectroscopy, as described in Grattoni et al., Lab on a Chip 10:3074-3083 (2010) and Grattoni et al., Anal. Chem. 83:3096-3103 (2011). A linear standard curve relating UV absorbance and concentration of diffused substance was obtained at a wavelength of 250 nm and used for the release test of testosterone. A linear standard curve relating UV absorbance and concentration of diffused substance was obtained at a wavelength of 240 nm and used for the release test of levothyroxine. […]
PEEK capsules were loaded with 852 and 875 μL of Millipore water and 17.1 mg of powder. […] For the release measurement, a UV-Vis absorbance versus concentration standard curve was prepared. The absorbance was measured at 240 nm. The sampling method consisted of removing 1.5 mL of the sink solution, measuring the absorbance, and returning the sample to the bottle. […]

[2] = Second long-term testosterone release experiment, capsule with 40 nm membrane into sink solution; settings: pellet formulation (Testopel), 40 nm nanochannel membrane
Source text: The second long-term testosterone release experiment was run with the same setup and measurement method. In this case, 40 nm membranes with 8 μm wide and 1 μm long nanochannels were used for both testosterone formulations. The nanochannel membrane was fabricated by NanoMedical Systems, Inc., Austin Tex. by using the fabrication methods as described in PCT/US2009/064376. In general, the nanochannel membrane was fabricated with microfabrication techniques by employing a sacrificial layer technique, to obtain precise nanochannels parallel to the membrane surface and connected to the membrane inlet and outlet by means of sets of microchannels.
Testosterone powder and pellet (26 and 24.7 mg, respectively) were weighted into PEEK capsules. Both capsules were filled with 900 μL and dropped into 90 mL of Millipore water. The sampling measurement was performed every other day with the same method described above.

[3] = First long-term testosterone release experiment, capsule with 3 nm membrane into sink solution; settings: pellet formulation (Testopel), 3 nm nanochannel membrane, 37° C.
Experimental: In the first long-term testosterone release experiment, two testosterone formulations, powder and pellet (Testopel), were used. The release experiment was performed from a capsule into a bottle containing the recipient sink solution. A 3 nm membrane was used for each testosterone formulation and assembled within the capsule. Each nanochannel presented a width of 5 μm and a length of 3 μm. The nanochannel membrane was fabricated by NanoMedical Systems, Inc., Austin Tex. by using the fabrication methods as described in PCT/US2009/064376. In general, the nanochannel membrane was fabricated with microfabrication techniques by employing a sacrificial layer technique, to obtain precise nanochannels parallel to the membrane surface and connected to the membrane inlet and outlet by means of sets of microchannels.
The total number of nanochannel per membrane is equal to 118496. Testosterone powder (21.2 mg) was weighted into the titanium capsule, which was filled with 791 μL of Millipore water. […] For the release measurement of both testosterone conformations, a UV-Vis absorbance versus concentration standard curve was prepared. The testosterone solutions were sampled every other day and the UV absorbance was measured at a wavelength of 250 nm. The sampling method consisted of removing 1.5 mL of the sink solution, measuring the absorbance, and returning the sample to the bottle. […]

[4] = Preliminary release of testosterone from solid pellets through 3 nm nanochannel membrane (UV absorbance)
Experimental: In a preliminary experiment, the nanochannel implant was loaded with degradable testosterone pellets immersed in DI water. The amount of DI water inserted in the capsule was approximately 700 μL.

| Compound | duration of continuous and constant release of levothyroxine [1] | approximate daily release rate of levothyroxine ([1]; 37° C.) | duration of constant (linear) delivery of testosterone [2] | duration of constant (linear) delivery of testosterone [3] | duration of constant release of testosterone ([4]; solid pellets) | release rate of testosterone ([4]; solid pellets (24 mg testosterone) in DI water) |
| --- | --- | --- | --- | --- | --- | --- |
| N[C@@H](Cc1cc(I)c(Oc2cc(I)c(O)c(I)c2)c(I)c1)C(=O)O.O.O.O.O.O.[Na] [levothyroxine, L-thyroxine sodium pentahydrate] | 17 days | ~500 µg/day |  |  |  |  |
| C[C@]12CC[C@H]3[C@@H](CCC4=CC(=O)CC[C@@]43C)[C@@H]1CC[C@@H]2O [testosterone] |  |  | over 160 days | over 180 days | 13 days | 5 µg/day |
